What was measured:
[1] = cited from earlier work
[2] = dose-response meta-analysis; cited from earlier work
[3] = Therapeutic drug monitoring: steady-state trough serum sertraline concentration
[4] = Female, Adults, median (1st quartile, 3rd quartile), listed as sertraline

## CN[C@H]1CC[C@@H](c2ccc(Cl)c(Cl)c2)c2ccccc21 [Sertraline]
[1]; children and adolescents, TDM-VIGIL study
  reference range of serum concentration: 66 to 76 ng/mL
[1]; interindividual pharmacokinetic variability
  coefficient of variation of concentration: 59%
[2]
  effective daily range: 50 to 150 mg
[3]; Adults, median (1st quartile, 3rd quartile)
  C/D (dose-adjusted serum concentration): 0.50 (0.33, 0.71) (ng/ml)/(mg/d)
[3]; Adults, median (1st quartile, 3rd quartile), listed as sertraline
  C/D (dose-adjusted serum concentration): 0.50 (ng/ml)/(mg/d)
[3]; Children and Adolescents, median (1st quartile, 3rd quartile)
  C/D (dose-adjusted serum concentration): 0.44 (0.31, 0.67) (ng/ml)/(mg/d)
[3]; Children and Adolescents, median (1st quartile, 3rd quartile), listed as sertraline
  C/D (dose-adjusted serum concentration): 0.44 (ng/ml)/(mg/d)
[3]; Female, Adults, median (1st quartile, 3rd quartile)
  Serum Concentration: 62.3 (33.5, 102.0) ng/mL
[3]; [4]
  C/D: 0.51 (ng/ml)/(mg/d)
  Serum Concentration: 62.3 ng/mL
[3]; Female, Children and Adolescents, median (1st quartile, 3rd quartile)
  Serum Concentration: 53.2 (32.4, 86.2) ng/mL
[3]; Female, Total, median (1st quartile, 3rd quartile)
  Serum Concentration: 57.0 (32.9, 95.5) ng/mL
[3]; Male, Adults, median (1st quartile, 3rd quartile)
  Serum Concentration: 55.8 (35.0, 86.0) ng/mL
[3]; Male, Adults, median (1st quartile, 3rd quartile), listed as sertraline
  Serum Concentration: 55.8 ng/mL
[3]; Male, Children and Adolescents, median (1st quartile, 3rd quartile)
  Serum Concentration: 41.8 (23.9, 65.5) ng/mL
[3]; Male, Total, median (1st quartile, 3rd quartile)
  Serum Concentration: 52.4 (31.6, 81.3) ng/mL
[3]; Total, median (1st quartile, 3rd quartile)
  C/D (dose-adjusted serum concentration): 0.47 (0.32, 0.69) (ng/ml)/(mg/d)
[3]; adults, interindividual
  Coefficient of variation (CV) of C/D value: 61.1%
  Coefficient of variation (CV) of sertraline concentration: 68.0%
[3]; younger patients (children and adolescents), interindividual
  Coefficient of variation (CV) of C/D value: 80.6%

From article PMC12142871 (BMC Psychiatry, 2025)
